The record followed here is patent US20240228512A1, “ACYCLIC OXAZEPINE COMPOUNDS COMPRISING A 6-AZA MOIETY AND USES THEREOF” (Genentech, Inc., priority 2022, published 2024).

One may read the IC50 as the midpoint of a concentration-inhibition curve.

In one experiment the test system is H1975 cells. Briefly: H1975 CTG proliferation assay. The experiment is classed as cell-based. The note with it: Homo sapiens, NCI-H1975, H1975, CTG.
The test system of a further experiment is HPAC cells. The experiment in a line: HPAC 3D proliferation assay (CellTiter-Glo). The experiment is classed as cell-based. The note with it: Homo sapiens, 168 h, 3D culture, 7 days, read-out: HPAC CTG IC50. The protocol: (§1) SW620 and HPAC 3D proliferation assays.
(§2) Compound potencies were assessed in proliferation assays conducted with SW620 and HPAC cell lines grown in 3D cultures. Cells were seeded into 96- or 384-well ultra-low attachment plates at 3000 or 1000 cells/well, respectively, in culture medium (RPMI-1640, 10% FBS, 2 mM L-glutamine). The plated cells were centrifuged briefly, allowed to rest for 30 minutes under ambient conditions, and cultured overnight at 37° C./5% CO2 to initiate the formation of spheroids. Compound dilutions were prepared across a range of concentrations in DMSO and added to the appropriate wells of the assay plates with a 333-fold dilution into the culture medium. The plates were further incubated for 7 days. The quantity of viable cells was assessed using CellTiter-Glo 3D Cell Viability Assay (Promega). The detection reagent penetrates the spheroids and lyses the cells. The released ATP that was detected with luciferase and a luciferase substrate to generate a luminescent readout. […] The data points were fit to a 4-parameter logistic equation to determine IC50 values.
(Cellular ATP, detected with luciferase, serves as a proxy for viable cell number.)

For the next experiment, the system named is SW620 cells. Briefly: SW620 3D proliferation assay (CellTiter-Glo). The note with it: Homo sapiens, SW-620, 168 h, SW620, 3D culture, 7 days, read-out: SW620 CTG IC50. In kind it is cell-based. The protocol:
as §1, §2

The subject of another experiment is SW620 PERK. The experiment in a line: SW620 PERK assay. In kind it is cell-based. The note with it: Homo sapiens, SW-620, SW620, PERK.
Experiment [1] concerns the target recombinant human KRAS wild type (SOS1-mediated nucleotide exchange) (Homo sapiens (Human), UniProt P01116). Briefly: KRAS biochemical assay, BODIPY-GDP exchange TR-FRET (WT-GDP HTRF). The protocol: [Worded in the source for another variant; this variant is reported under the same test.] KRAS Biochemical Assay—BODIPY-GDP Exchange TR-FRET.
Biochemical compound potencies were assessed by evaluating inhibition of SOS1-mediated nucleotide exchange in KRAS G12D. The SOS1-promoted exchange of fluorescently-labeled GDP (BOPIDY-GDP) was monitored by time-resolved fluorescence resonance energy transfer (TR-FRET). Compounds solubilized in DMSO were dispensed as concentration series into 384-well white assay plates. […] The reaction was initiated with the addition of 5 μL of 3 nM recombinant human SOS1 and 300 nM BODIPY-GDP in assay buffer. After a 60-minute incubation, the fluorescence was measured with excitation at 337 nm and emission at 490 and 520 nm. The TR-FRET ratio was determined as the fluorescence at 520 nm divided by the fluorescence at 490 nm multiplied by 10,000. […] The normalized TR-FRET results were plotted against compound concentration, and the data fit to a 4-parameter Hill equation to determine the IC50 values.
A general note: In TR-FRET formats the signal depends on donor and acceptor labels being close together.

The target of experiment [2] is recombinant human mutant KRas G12V (SOS1-mediated nucleotide exchange) (Homo sapiens (Human), UniProt P01116, G12V). Briefly: KRAS biochemical assay, BODIPY-GDP exchange TR-FRET (G12V-GDP HTRF).
Sequence of recombinant human mutant KRas G12V (SOS1-mediated nucleotide exchange) (P01116-2 other isoform, or with tags, fused parts or gaps G12V): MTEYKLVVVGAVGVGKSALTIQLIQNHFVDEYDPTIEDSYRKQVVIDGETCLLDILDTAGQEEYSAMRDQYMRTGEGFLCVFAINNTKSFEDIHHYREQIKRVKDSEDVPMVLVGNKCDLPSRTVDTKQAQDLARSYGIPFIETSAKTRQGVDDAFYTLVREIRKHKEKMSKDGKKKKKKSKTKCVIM

Sequence of recombinant human KRAS wild type (SOS1-mediated nucleotide exchange) (P01116-2 other isoform, or with tags, fused parts or gaps): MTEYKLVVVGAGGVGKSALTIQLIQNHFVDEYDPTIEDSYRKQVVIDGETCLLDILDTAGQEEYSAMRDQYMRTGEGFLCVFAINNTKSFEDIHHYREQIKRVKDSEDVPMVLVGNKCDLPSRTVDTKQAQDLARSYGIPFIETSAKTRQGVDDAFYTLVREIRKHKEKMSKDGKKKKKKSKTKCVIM

As to `C[C@H](c1cccnc1N)N1CCOc2nc(-c3nc(N)cc4ccccc34)c(F)c3nc(OC[C@@]45CCCN4C[C@H](F)C5)nc1c23` [Example 618, 1-(10-((R)-1-(2-aminopyridin-3-yl)ethyl)-4-fluoro-2-(((2R,7aS)-2-fluorotetrahydro-1H-pyrrolizin-7a(5H)-yl)methoxy)-9,10-dihydro-8H-7-oxa-1,3,6,10-tetraazacyclohepta[de]naphthalen-5-yl)isoquinolin-3-amine], the half-maximal inhibitory concentration (IC50) in the experiment on H1975 cells was found to be 93.2 nM; in the experiment with HPAC cells, 1050 nM; with SW620 cells, 393 nM; with SW620 PERK it was 233 nM; in experiment [1], 3.43 nM; in experiment [2], 0.45 nM.

As to `Cc1nc(N)nc(-c2nc3c4c(nc(OC[C@@]56CCCN5C[C@H](F)C6)nc4c2F)N([C@H](C)c2cccnc2N)CCO3)c1C(F)(F)F` [Example 628, 4-(10-((R)-1-(2-aminopyridin-3-yl)ethyl)-4-fluoro-2-(((2R,7aS)-2-fluorotetrahydro-1H-pyrrolizin-7a(5H)-yl)methoxy)-9,10-dihydro-8H-7-oxa-1,3,6,10-tetraazacyclohepta[de]naphthalen-5-yl)-6-methyl-5-(trifluoromethyl)pyrimidin-2-amine], the IC50 worked out at 471 nM with H1975 cells; 331 nM in the experiment on HPAC cells; 14.6 nM in the experiment on SW620 cells; 14 nM in the experiment on SW620 PERK; 0.826 nM in experiment [1]; 0.33 nM in experiment [2].

Regarding `Cc1c(F)c(N)nc(-c2nc3c4c(nc(OC[C@@]56CCCN5C[C@]5(CC5(F)F)C6)nc4c2F)N([C@H](C)c2cccnc2N)CCO3)c1C(F)(F)F` [Example 614], the 50% inhibitory concentration (IC50) in the experiment with H1975 cells stood at 1960 nM; with HPAC cells it was 11.5 nM; in the experiment with SW620 cells, 1.75 nM; with SW620 PERK it was 2.42 nM; in experiment [1] it was 0.16 nM; in experiment [2], 0.12 nM.

As to `Cc1cc(N)nc(-c2nc3c4c(nc(OC[C@@]56CCCN5C[C@H](F)C6)nc4c2Cl)N([C@H](C)c2cccnc2N)CCO3)c1C(F)(F)F` [Example 633, 6-(10-((R)-1-(2-aminopyridin-3-yl)ethyl)-4-chloro-2-(((2R,7aS)-2-fluorotetrahydro-1H-pyrrolizin-7a(5H)-yl)methoxy)-9,10-dihydro-8H-7-oxa-1,3,6,10-tetraazacyclohepta[de]naphthalen-5-yl)-4-methyl-5-(trifluoromethyl)pyridin-2-amine], the concentration for half-maximal inhibition (IC50) is 48.4 nM in the experiment with H1975 cells; 77.8 nM with HPAC cells; 19.9 nM in the experiment on SW620 cells; 23 nM in the experiment with SW620 PERK; 0.416 nM in experiment [1]; 0.2 nM in experiment [2].

Regarding `C#Cc1cccc2cncc(-c3nc4c5c(nc(OC[C@@]67CCCN6C[C@H](F)C7)nc5c3F)N([C@H](C)c3cccnc3N)CCO4)c12` [Example 18, 3-((R)-1-(5-(5-ethynylisoquinolin-4-yl)-4-fluoro-2-(((2R,7aS)-2-fluorotetrahydro-1H-pyrrolizin-7a(5H)-yl)methoxy)-8,9-dihydro-10H-7-oxa-1,3,6,10-tetraazacyclohepta[de]naphthalen-10-yl)ethyl)pyridin-2-amine], the 50% inhibitory concentration (IC50) was determined as 5.54 nM in the experiment on H1975 cells; 56.1 nM in the experiment with HPAC cells; 13 nM in the experiment with SW620 cells; 5.44 nM in the experiment with SW620 PERK; 0.33 nM in experiment [1]; 0.24 nM in experiment [2].

For `Cc1c(F)c(N)nc(-c2nc3c4c(nc(OC[C@@]56CCCN5C[C@H](F)C6)nc4c2Cl)N([C@H](C)c2cccnc2N)CCO3)c1C(F)(F)F` [Example 620, 6-(10-((R)-1-(2-aminopyridin-3-yl)ethyl)-4-chloro-2-(((2R,7aS)-2-fluorotetrahydro-1H-pyrrolizin-7a(5H)-yl)methoxy)-9,10-dihydro-8H-7-oxa-1,3,6,10-tetraazacyclohepta[de]naphthalen-5-yl)-3-fluoro-4-methyl-5-(trifluoromethyl)pyridin-2-amine], the 50% inhibitory concentration (IC50) with H1975 cells turned out to be 132 nM; with HPAC cells it was 89.8 nM; in the experiment with SW620 cells it was 19.2 nM; with SW620 PERK it was 4.29 nM; in experiment [1], 0.748 nM; in experiment [2], 0.24 nM.

As for `Cc1cc(N)nc(-c2nc3c4c(nc(OC[C@@]56CCCN5C[C@H](F)C6)nc4c2F)N(C(C)c2scnc2N)CCO3)c1C(F)(F)F` (stereo partly drawn) [Example 607, 5-(1-(5-(6-amino-4-methyl-3-(trifluoromethyl)pyridin-2-yl)-4-fluoro-2-(((2R,7aS)-2-fluorotetrahydro-1H-pyrrolizin-7a(5H)-yl)methoxy)-8,9-dihydro-10H-7-oxa-1,3,6,10-tetraazacyclohepta[de]naphthalen-10-yl)ethyl)thiazol-4-amine], the IC50 came to 35.5 nM in the experiment on H1975 cells; 302 nM with HPAC cells; 90.7 nM with SW620 cells; 17.8 nM in the experiment with SW620 PERK; 0.69 nM in experiment [1]; 0.27 nM in experiment [2].

In the case of `C[C@H](c1cccnc1N)N1CCOc2nc(-c3cc(N)ncc3C(F)(F)F)c(F)c3nc(OC[C@@]45CCCN4C[C@H](F)C5)nc1c23` [Example 608, 4-(10-((R)-1-(2-aminopyridin-3-yl)ethyl)-4-fluoro-2-(((2R,7aS)-2-fluorotetrahydro-1H-pyrrolizin-7a(5H)-yl)methoxy)-9,10-dihydro-8H-7-oxa-1,3,6,10-tetraazacyclohepta[de]naphthalen-5-yl)-5-(trifluoromethyl)pyridin-2-amine], the IC50 with H1975 cells amounted to 243 nM; with HPAC cells it was 917 nM; in the experiment on SW620 cells, 246 nM; in the experiment on SW620 PERK it was 45.1 nM; in experiment [1], 3.38 nM; in experiment [2], 0.52 nM.

Take `C[C@H](c1cccnc1N)N1CCOc2nc(-c3c(C(F)(F)F)ccc(N)c3Cl)c(F)c3nc(OC[C@@]45CCCN4C[C@H](F)C5)nc1c23` (single isomer, unassigned) [Example 622b]: the IC50 with H1975 cells came to 2610 nM; in the experiment with HPAC cells, 123 nM; in the experiment on SW620 cells it was 22.8 nM; in the experiment on SW620 PERK it was 29.6 nM; in experiment [1] it was 5.5 nM; in experiment [2], 2.3 nM.

Turning to `Cc1c(F)c(N)nc(-c2nc3c4c(nc(OC[C@@]56CCCN5C[C@H](F)C6)nc4c2F)N([C@H](C)c2cncnc2N)CCO3)c1C(F)(F)F` [Example 613, 5-((R)-1-(5-(6-amino-5-fluoro-4-methyl-3-(trifluoromethyl)pyridin-2-yl)-4-fluoro-2-(((2R,7aS)-2-fluorotetrahydro-1H-pyrrolizin-7a(5H)-yl)methoxy)-8,9-dihydro-10H-7-oxa-1,3,6,10-tetraazacyclohepta[de]naphthalen-10-yl)ethyl)pyrimidin-4-amine], the IC50 came to 160 nM in the experiment on H1975 cells; 1520 nM with HPAC cells; 290 nM with SW620 cells; 146 nM in the experiment with SW620 PERK; 1.45 nM in experiment [1]; 0.24 nM in experiment [2].

As for `C[C@H](c1cccnc1N)N1CCOc2nc(-c3c(C(F)(F)F)ccc(N)c3Cl)c(F)c3nc(OC[C@@]45CCCN4C[C@H](F)C5)nc1c23` (atropisomer, axis not shown; (aS)) [Example 622a, 3-((R)-1-((R)-5-(3-amino-2-chloro-6-(trifluoromethyl)phenyl)-4-fluoro-2-(((2R,7aS)-2-fluorotetrahydro-1H-pyrrolizin-7a(5H)-yl)methoxy)-8,9-dihydro-10H-7-oxa-1,3,6,10-tetraazacyclohepta[de]naphthalen-10-yl)ethyl)pyridin-2-amine], the half-maximal inhibitory concentration (IC50) in the experiment on H1975 cells is 766 nM; in the experiment with HPAC cells, 39.6 nM; in the experiment with SW620 cells, 5.1 nM; in the experiment with SW620 PERK it was 3.2 nM; in experiment [1], 0.572 nM; in experiment [2], 0.19 nM.

On to `Cc1nc(N)cc(-c2nc3c4c(nc(OC[C@@]56CCCN5C[C@H](F)C6)nc4c2Cl)N([C@H](C)c2cccnc2N)CCO3)c1C(F)(F)F` [Example 626, 4-(10-((R)-1-(2-aminopyridin-3-yl)ethyl)-4-chloro-2-(((2R,7aS)-2-fluorotetrahydro-1H-pyrrolizin-7a(5H)-yl)methoxy)-9,10-dihydro-8H-7-oxa-1,3,6,10-tetraazacyclohepta[de]naphthalen-5-yl)-6-methyl-5-(trifluoromethyl)pyridin-2-amine], for which the 50% inhibitory concentration (IC50) with H1975 cells was 262 nM; with HPAC cells, 160 nM; in the experiment on SW620 cells, 27.1 nM; with SW620 PERK, 10.5 nM; in experiment [1] it was 0.67 nM; in experiment [2] it was 0.16 nM.
